Molecules are shown by their SMILES.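 Protocol summary: plate cells (96-well), add compound at 5 concentrations, incubate 48 h, interpolate endpoints linearly. GI50 is the concentration that inhibits growth by half. TGI: concentration producing complete growth inhibition.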

Among the test systems are DU-145 prostate; M14 melanoma; UO-31 renal; SK-MEL-28 melanoma; UACC-62 melanoma; BT-549 breast; IGROV1 ovarian; HCC-2998 colon; NCI-H460 lung; SF-539 CNS.
What all share (assay): NCI anticancer screen, dose series, 48 h

For the compound `NCCCNc1nc2ccccc2c2c(=O)c3cc(OC(F)(F)F)ccc3sc12`, the GI50 is 1620 nM in the experiment with DU-145 prostate; 1670 nM in the experiment on M14 melanoma; 1490 nM with UO-31 renal; 1800 nM in the experiment with SK-MEL-28 melanoma; 1660 nM in the experiment with UACC-62 melanoma; 10700 nM with BT-549 breast. Besides, the GI50 was 1460 nM with IGROV1 ovarian, 1710 nM in the experiment with HCC-2998 colon, 1110 nM with NCI-H460 lung and 1680 nM in the experiment with SF-539 CNS. Moreover, the TGI with DU-145 prostate worked out at 3040 nM; in the experiment with M14 melanoma, 3160 nM; with UO-31 renal, 2900 nM; with SK-MEL-28 melanoma, 3240 nM; in the experiment with UACC-62 melanoma, 3070 nM; in the experiment with BT-549 breast, 32600 nM. Also, the TGI in the experiment with IGROV1 ovarian came to 2900 nM; in the experiment on HCC-2998 colon it was 3250 nM; in the experiment on NCI-H460 lung it was 2520 nM; with SF-539 CNS, 3150 nM.

Values taken from PubChem BioAssay (NCI).
